Measurements taken from patent US20230067666A1, “METHOD FOR PREPARING COUMARIN COMPOUNDS SUBSTITUTED BY AMIDOALKYL AT 3-POSITION, THE PRODUCTS AND RELATED INTERMEDIATES THEREOF” (Fosun Orinove PharmaTech, Inc., priority 2019, published 2023).
Several values for one entry are separate records, joined by “and”; a condition that tells them apart may be missing. Identical values can stand only once.

What was measured:
Format in all cases: physicochemical
[1] = thermogravimetric analysis (TGA) test; conditions: heated to 200° C.
Source text: Thermogravimetric analysis (TGA) is a common method for determining the thermal stability of compounds. Herein, TGA is also used to determine the hydration state of a compound. The rate of temperature rise during the test have a certain impact on the pattern. For example, an excessively high rate of temperature rise is not conducive to the detection of intermediate products. TGA patterns can be measured, for example, on a model TA TGA Q500 instrument. In one embodiment, the thermogravimetric analysis pattern of the crystal form I is determined by the following method: TGA thermogravimetric analyzer: TA TGA Q500; temperature range: room temperature ˜350° C.; scanning rate: 10° C./min; protective gas: nitrogen; flow rate: 40 mL/min (balance) or […] (sample). TGA Thermogravimetric Analyzer: TA TGA Q500, temperature range is from room temperature to 350° C., scanning rate is 10° C./min, the protective gas is nitrogen, and the flow rate is 40 mL/min (balance) or 60 mL/min (sample).

[2] = dynamic vapor sorption (DVS) test; conditions: for hygroscopicity (result in words): DVS
Source text: Dynamic Vapor Sorption (DVS) is a common method to investigate the moisture adsorption of drugs, excipients or packaging materials through a dynamically accelerated moisture adsorption process. The moisture adsorption isotherm is usually used to describe the degree of correlation between the moisture content of the sample and the relative humidity during the moisture adsorption process of the sample. DVS patterns can be measured, for example, on a model IGAsorp instrument. In one embodiment, the dynamic vapor sorption pattern of the crystal form I is determined by the following method: DVS dynamic vapor sorption instrument: IGAsorp; temperature: 25° C.; temperature stability: 0.1° C./min; carrier gas: nitrogen; flow rate: 250 mL/min; scanning: 2; minimum time: 30 min; maximum time: 2 hours; upper waiting limit: 98%; humidity gradient: adsorption: 0, 10, 20, 30, 40, 50, 60, 70, 80, 90; desorption: 80, 70, 60, 50, 40, 30, 20, 10, 0. DVS Dynamic Vapor Sorption Apparatus: IGAsorb, the temperature is 25° C., the temperature stability: 0.1° C./min, the carrier gas is nitrogen, the flow rate is 250 mL/min, scanning: 2, the minimum time is 30 min, the maximum time is 2 hours, the upper waiting limit is 98%, humidity gradient: adsorption: 0, 10, 20, 30, 40, 50, 60, 70, 80, 90; desorption: 80, 70, 60, 50, 40, 30, 20, 10, 0.

[3] = test of stability against mechanical treatment (grinding, XRPD); conditions: ground in a mortar for 2 min and 5 min
Protocol: In one embodiment, the stability of the crystal form I against mechanical treatment is determined by the following method: the crystal form I is placed in a mortar, ground for 2 min and 5 min respectively, and XRPD detection is carried out to analyze the solid after grinding. The crystal form I was placed in a mortar, ground for 2 min and 5 min, respectively, and XRPD detection was carried out to analyze the solid after grinding.

[4] = powder properties (bulk density, tap density, Carr index, angle of repose)
[5] = crystal form I stability test (HPLC purity and XRPD after storage); conditions: for chemical and physical stability (result in words): 40° C./75% RH and 60° C. for 14 days, HPLC purity and XRPD
Protocol: X-ray powder diffractometer: Bruker D8 advance X, the radiation source is Cu-Ku, the scanning range of the test is 3° (2θ)˜40° (2θ), the scanning step size is 0.02° (2θ), and the scanning rate is 0.3 sec/step. HPLC (purity determination): Waters Acquity Arc liquid chromatography system or any equivalent; Column: EclipsexDB C18, 4.6×150 mm, 3.5 μm, or any equivalent; Column temperature: 30° C.; detection wavelength: 210 nm; mobile phase A: 0.05% trifluoroacetic acid aqueous solution; mobile phase B: 0.05% trifluoroacetic acid acetonitrile solution; concentration gradient running time: 20 minutes. Two samples of the crystal form I were placed under the conditions of 40° C./75% relative humidity (RH), and the temperature in the oven was 60° C. (with humidity not controlled) for 14 days.

[6] = particle size distribution (PSD) test
Protocol: In one embodiment, the particle size distribution (PSD) of the crystal form I is determined using a Malvern Mastersizer 2000. The parameters used may be: pump speed: 2500 rpm; dispersant volume: 800 mL; dispersant: water; dispersion medium: 1% Tween 80. Crystal form I is a granular crystal, and the particle size is 50-100 μm observed under a microscope (Nikon Eclipse LV100POL). The particle size distribution (PSD) of the crystal form I was determined using a Malvern Mastersizer 2000. Pump speed: 2500 rpm; Dispersant volume: 800 mL; Shielding degree: 10%-20%; Dispersant: water; Dispersion medium: 1% Tween 80; Background measurement: 12s; Sample measurement: 12s; Measurement cycle: 3.

[7] = Malvern Mastersizer 2000, dispersant water, 1% Tween 80

Compound: COc1cc2c(C)c(CC(=O)N3CCOCC3)c(=O)oc2c(C=O)c1O [crystal form I]
- weight loss (TGA) [1]: about 0.017%
- hygroscopicity (result in words) ([2]; 25° C.): only slightly hygroscopic
- hygroscopicity (result in words) ([2]; 25° C., listed as Orin1001 crystal form I): slightly hygroscopic
- crystal form after DVS measurement (XRPD) ([2]; XRPD before and after DVS): did not change
- weight gain (DVS) ([2]; after equilibration at 90% relative humidity, 25° C.): 0.34%
- crystal form after grinding (XRPD) [3]: the crystal form does not change
- Carr index [4]: 20%
- angle of repose [4]: 30.6 °
- bulk density [4]: 0.72 g/mL
- fluidity (result in words) [4]: very good
- tap density [4]: 0.90 g/mL
- chemical and physical stability (result in words) [5]: good chemical and physical stability
- chemical and physical stability (result in words) ([5]; listed as Orin1001 crystal form I): excellent stability
- HPLC purity: peak area % ([5]; 40° C./75% RH, the 7th day): 99.62% and 99.54%
- HPLC purity: peak area % ([5]; 40° C./75% RH, the 14th day): 99.54% and 99.56%
- HPLC purity: peak area % ([5]; 60° C. (in oven), humidity not controlled, the 7th day): 99.64% and 99.58%
- HPLC purity: peak area % ([5]; 60° C. (in oven), humidity not controlled, the 14th day): 99.52% and 99.54%
- HPLC purity: peak area % ([5]; TO column of the 7th day table): 99.60% and 99.58%
- HPLC purity: peak area % ([5]; TO column of the 14th day table): 99.53% and 99.54%
- D(0.1) [6, 7]: 67.1 μm
- D(0.5) [6, 7]: 115.5 μm
- D(0.9) [6, 7]: 206.4 μm
- particle size observed under a microscope ([6]; Nikon Eclipse LV100POL): 50-100 μm
